The source of these data is ChEMBL document CHEMBL4364252, “Tetrahydropyrazolo[1,5-a]pyridine-fused steroids and their in vitro biological evaluation in prostate cancer” (2019).

Assay [1] relates to CWR22R. The assay is described as follows: Antiproliferative activity against AR-positive human 22Rv1 cells harboring ARE14 construct assessed as cell viability at 10 uM measured after 72 hrs by resazurin dye based fluorescence assay relative to control. It is filed as functional. The note with it: 22Rv1, 72 h, read-out: Activity. (In general: Alamar Blue is a resazurin reagent that responds to reducing activity.)

In a further assay the test system is LAPC4. Kind of assay: Antiproliferative activity against AR-positive human LAPC4 cells assessed as cell viability at 10 uM measured after 72 hrs by resazurin dye based fluorescence assay relative to control. It is filed as functional. The settings on record: LAPC4, 72 h, read-out: Activity.
In a further assay the test system is PC-3. Kind of assay: Antiproliferative activity against AR-negative human PC3 cells assessed as cell viability at 10 uM measured after 72 hrs by resazurin dye based fluorescence assay relative to control. The assay is classed as functional. The note with it: PC-3, 72 h, read-out: Activity.
Assay [2] deals with VCaP. The assay is described as follows: Induction of apoptosis in AR-positive human VCaP cells assessed as cleaved PARP level at 5 to 20 uM after 24 hrs by immunoblot analysis. It is filed as functional, cell-based.
For assay [3], the system named is CWR22R. Kind of assay: Induction of apoptosis in R1881-activated AR-positive human 22Rv1 cells harboring ARE14 construct assessed as cleaved PARP level at 5 to 20 uM after 24 hrs by immunoblot analysis. It is filed as functional, cell-based.
Assay [4] concerns VCaP. The assay is described as follows: Antiproliferative activity against AR-positive human VCaP cells assessed as cell viability at 10 uM measured after 72 hrs by resazurin dye based fluorescence assay relative to control. The note with it: read-out: Activity. It is filed as functional.
A further assay concerns LNCaP. The assay is described as follows: Antiproliferative activity against AR-positive human LNCAP cells assessed as cell viability at 10 uM measured after 72 hrs by resazurin dye based fluorescence assay relative to control. The assay is classed as functional. The settings on record: read-out: Activity.

Structures are written as SMILES. Calls of active or inactive are those of the source. No cut-off for these calls is given here.

Turning to `C[C@]12CC[C@H](O)CC1=CC[C@@H]1[C@@H]2CC[C@]2(C)C(n3cnc4ccccc43)=CC[C@@H]12` [GALETERONE], the viability at 10 µM in the assay on CWR22R [1] was more than 100%; in the assay on LAPC4 it was 92.8%; in the assay on PC-3 it was more than 100%; with VCaP [4], 72.9%; in the assay with LNCaP, 91.6%. Further, the outcome in the assay with VCaP [2] and with CWR22R [3] was Active.
